Source: US6627649B1, “Pharmaceutical compositions containing in combination two antagonists selective of arginine-vassopressin V receptors, even of V1 a and V2 receptors” (Sanofi-Synthelabo, priority 1998, dated 2003)

Columns and labels:
human V2 receptors = human V2 receptors (Homo sapiens, UniProt P30518); conditions: cited from earlier work
human V1a receptors = human V1a receptors (Homo sapiens, UniProt P37288); conditions: various species, in particular human V1a receptors; J. Clin. Invest., 1993, 92 224-231; cited from earlier work
[1] = system: normally hydrated conscious rat; assay: water diuresis induced in the normally hydrated conscious rat (urinary volume, osmolality, Na+ and K+ excretion over 24 h); format: in vivo, Sprague Dawley male rats; conditions: for effect on urinary excretion (in words) / effect on urinary excretion of Na+ and K+ ions (in words) / effect on urinary osmolality (in words): oral, over 24 hours
Description: Serradeil-Le Gal et al., J. Clin. Invest. 1996, 98, 2729-2738.
The various assays are performed on Sprague Dawley male rats (280+/−20 g) obtained from Iffa Credo (France).
Twenty four hours before the start of the study, the rats were randomized and placed in metabolic cages with food and water ad libitum. They received orally 3 ml/kg of a 0.6% aqueous solution of methylcellulose. The urines were collected over a 24 hour period, i.e. day D-1.
The next morning the rats are treated orally (solvent or products alone or in combination) and returned individually to their metabolic cage for a period of 24 hours with food and water ad libitum. The urines are collected over a period of 24 hours after treatment, i.e. day D-0.
Urinary osmolality and the urinary excretion of Na^+ and K^+ ions are also measured during the 24 hour period before and after treatment. The urinary osmolality is measured with a freezing point depression osmometer (Fisk OS 110 model, Elvetec, Marseille, France) and the urinary concentrations of sodium and potassium are measured with a flame photometer (IL 943, Instruments Laboratories, Marseille, France).
The compounds alone (compound A, compound B) or in combination (compound A+compound B) are suspended in a 0.6% aqueous solution of methylcellulose and administered by gavage in a final volume of 3 ml/kg.
Compound B was used in the form of its dihydrogen phosphate monohydrate salt, the doses indicated are expressed in terms of the base.
The results are expressed in the form of the mean+/−SEM (standard error of the mean). The statistical analysis of the results is performed by means of a two factor variance analysis with repeated measurements of the time factor. The comparison of the means is made with the aid of the Dunnett test for a comparison with respect to a time or group of reference. Only the values of p lower than 5% are considered to be significant (p<0.05).
ASSAY No. 1: Comparative effect on urinary excretion, urinary osmolality and excretion of the Na^+ and K^+ ions in the rat after oral administration of compound A alone, compound B alone and of the combination compound A^+ compound B.
a) Study Performed by Oral Administration of a Fixed Dose of Compound A (30 mg/kg) combined with increasing doses of compound B (0.3, 1 or 3 mg/kg).
b) Study Performed by Oral Administration of a Fixed Dose of Compound B (1 mg/kg) combined with increasing doses of compound A (3,10 or 30 mg/kg).

[2] = study a, 30 mg/kg oral, D0 0-24 h after treatment
[3] = study a, 30 mg/kg oral, D-0 0-24 h after treatment
[4] = study a, group of 30 mg/kg oral, D-1 0-24 h, day before treatment (solvent only)
[5] = study a, compound A 30 mg/kg, compound B 0.3, 1 or 3 mg/kg, alone or combined
[6] = study b, 30 mg/kg oral, D0 0-24 h after treatment
[7] = study b, group of 30 mg/kg oral, D-1 0-24 h, day before treatment (solvent only)
[8] = study a, 0.3 mg/kg oral, D0 0-24 h after treatment
[9] = study a, 0.3 mg/kg oral, D-0 0-24 h after treatment
[10] = study a, 1 mg/kg oral, D0 0-24 h after treatment
[11] = study a, 1 mg/kg oral, D-0 0-24 h after treatment
[12] = study a, 3 mg/kg oral, D0 0-24 h after treatment
[13] = study a, 3 mg/kg oral, D-0 0-24 h after treatment
[14] = study a, group of 0.3 mg/kg oral, D-1 0-24 h, day before treatment (solvent only)
[15] = study a, group of 1 mg/kg oral, D-1 0-24 h, day before treatment (solvent only)
[16] = study a, group of 3 mg/kg oral, D-1 0-24 h, day before treatment (solvent only)
[17] = study b, 1 mg/kg oral, D0 0-24 h after treatment
[18] = study b, group of 1 mg/kg oral, D-1 0-24 h, day before treatment (solvent only)
[19] = study b, compound B 1 mg/kg alone or combined with compound A 3, 10 or 30 mg/kg

Chain of human V2 receptors (P30518 whole entry): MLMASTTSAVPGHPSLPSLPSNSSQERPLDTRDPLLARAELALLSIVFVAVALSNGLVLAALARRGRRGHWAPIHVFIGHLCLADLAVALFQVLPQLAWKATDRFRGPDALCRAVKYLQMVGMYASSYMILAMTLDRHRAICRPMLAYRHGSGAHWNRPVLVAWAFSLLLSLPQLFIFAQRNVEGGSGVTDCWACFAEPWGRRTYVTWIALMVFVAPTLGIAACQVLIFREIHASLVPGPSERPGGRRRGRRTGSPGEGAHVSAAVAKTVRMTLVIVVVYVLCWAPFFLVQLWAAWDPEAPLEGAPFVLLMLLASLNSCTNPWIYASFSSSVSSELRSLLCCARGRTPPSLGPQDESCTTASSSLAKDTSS
Chain of human V1a receptors (P37288 whole entry): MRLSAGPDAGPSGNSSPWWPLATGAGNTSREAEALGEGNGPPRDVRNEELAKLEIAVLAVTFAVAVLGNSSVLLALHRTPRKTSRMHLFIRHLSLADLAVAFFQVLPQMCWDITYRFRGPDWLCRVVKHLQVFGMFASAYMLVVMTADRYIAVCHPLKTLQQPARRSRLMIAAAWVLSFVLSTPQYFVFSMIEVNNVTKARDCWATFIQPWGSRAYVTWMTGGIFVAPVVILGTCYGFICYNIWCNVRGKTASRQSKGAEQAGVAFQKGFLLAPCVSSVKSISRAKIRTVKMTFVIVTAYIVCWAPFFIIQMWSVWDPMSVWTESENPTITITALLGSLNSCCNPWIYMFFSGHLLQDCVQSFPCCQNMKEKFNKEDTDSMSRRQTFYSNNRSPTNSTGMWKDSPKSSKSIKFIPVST

Compound: COc1ccc(S(=O)(=O)N2c3ccc(Cl)cc3[C@](O)(c3ccccc3Cl)[C@@H]2C(=O)N2CCC[C@H]2C(N)=O)cc1OC [Compound A, (2S)-1-{(2R,3S)-5-chloro-3-(2-chlorophenyl)-1-(3,4-dimethoxybenzenesulfonyl)-3-hydroxy-2,3-dihydro-1H-indole-2-carbonyl}pyrrolidine-2-carboxamide]
- affinity for the V2 receptors (in words) (human V2 receptors; literature description): low affinity
- V1a arginine vasopressin receptor antagonism (in words) (human V1a receptors): potent and selective
- urinary excretion of K+ [1, 2]: 2190 µmol
- urinary excretion of Na+ [1, 2]: 1668 µmol
- Urinary osmolality [1, 3]: 2462 +/− 379^ mOsmol/kg H2O
- Urinary volume [1, 3]: 7.3 ± 1.2 mL
- Urinary osmolality [1, 4]: 1409 +/− 13 mOsmol/kg H2O
- Urinary volume [1, 4]: 10.7 ± 1.1 mL
- urinary excretion of K+ [1, 4]: 2265 µmol
- urinary excretion of Na+ [1, 4]: 1903 µmol
- effect on urinary excretion (in words) [1, 5]: does not modify
- effect on urinary excretion of Na+ and K+ ions (in words) [1, 5]: does not alter
- effect on urinary osmolality (in words) [1, 5]: does not modify
- Urinary osmolality [1, 6]: 2462 +/− 379^ mOsmol/kg H2O
- Urinary volume [1, 6]: 7.3 +/− 1.2^ ml
- urinary excretion of K+ [1, 6]: 2190 µmol
- urinary excretion of Na+ [1, 6]: 1668 µmol
- Urinary osmolality [1, 7]: 1409 +/− 13 mOsmol/kg H2O
- Urinary volume [1, 7]: 10.7 ± 1.1 mL
- urinary excretion of K+ [1, 7]: 2265 µmol
- urinary excretion of Na+ [1, 7]: 1903 µmol

Compound: CCOc1ccc2c(c1)C1(CCC(OCCN3CCOCC3)CC1)C(=O)N2S(=O)(=O)c1ccc(C(=O)NC(C)(C)C)cc1OC (stereo not drawn) [Compound B, 1-{4-(N-tert-butylcarbamoyl)-2-methoxybenzenesulfonyl}-5-ethoxy-3-spiro{4-(2-morpholino-ethyloxy)cyclohexane}indol-2-one]
- V2 arginine vasopressin receptor antagonism (in words) (human V2 receptors; various species, in particular human V2 receptors, J. Clin. Invest., 1996, 98, 2729-2738): potent and selective
- urinary excretion of K+ [1, 8]: 2254 µmol
- urinary excretion of Na+ [1, 8]: 1668 µmol
- Urinary osmolality [1, 9]: 1075 +/− 165^a mOsmol/kg H2O
- Urinary volume [1, 9]: 15 ± 2 mL
- urinary excretion of K+ [1, 10]: 2334 µmol
- urinary excretion of Na+ [1, 10]: 1783 µmol
- Urinary osmolality [1, 11]: 618 +/− 27^a mOsmol/kg H2O
- Urinary volume [1, 11]: 25 +/− 2.2^a ml
- urinary excretion of K+ [1, 12]: 2648 µmol
- urinary excretion of Na+ [1, 12]: 2168 µmol
- Urinary osmolality [1, 13]: 292 +/− 40^a mOsmol/kg H2O
- Urinary volume [1, 13]: 72.9 +/− 11.1^a ml
- Urinary osmolality [1, 14]: 1371 +/− 125 mOsmol/kg H2O
- Urinary volume [1, 14]: 9.1 ± 0.7 mL
- urinary excretion of K+ [1, 14]: 2001 µmol
- urinary excretion of Na+ [1, 14]: 1772 µmol
- Urinary osmolality [1, 15]: 1376 +/− 99 mOsmol/kg H2O
- Urinary volume [1, 15]: 9.1 ± 0.7 mL
- urinary excretion of K+ [1, 15]: 2034 µmol
- urinary excretion of Na+ [1, 15]: 1840 µmol
- Urinary osmolality [1, 16]: 1443 +/− 46 mOsmol/kg H2O
- Urinary volume [1, 16]: 9.5 ± 0.6 mL
- urinary excretion of K+ [1, 16]: 2022 µmol
- urinary excretion of Na+ [1, 16]: 1903 µmol
- effect on urinary excretion (in words) [1, 5]: significantly increases
- effect on urinary excretion of Na+ and K+ ions (in words) [1, 5]: no effect
- effect on urinary osmolality (in words) [1, 5]: significantly diminishes
- Urinary osmolality [1, 17]: 616 +/− 51^a mOsmol/kg H2O
- Urinary volume [1, 17]: 31.6 +/− 3.5^a ml
- urinary excretion of K+ [1, 17]: 2944 µmol
- urinary excretion of Na+ [1, 17]: 2203 µmol
- Urinary osmolality [1, 18]: 1308 +/− 68 mOsmol/kg H2O
- Urinary volume [1, 18]: 11.7 ± 1.5 mL
- urinary excretion of K+ [1, 18]: 2519 µmol
- urinary excretion of Na+ [1, 18]: 2039 µmol
- effect on urinary excretion (in words) [1, 19]: significantly increases
- effect on urinary excretion of Na+ and K+ ions (in words) [1, 19]: no effect
- effect on urinary osmolality (in words) [1, 19]: significantly diminishes
